Assay results published in patent publication US12662705B2, “Interferon pathway genes regulate and predict efficacy of immunotherapy” (THE TRUSTEES OF THE UNIVERSITY OF PENNSYLVANIA, priority 2018, dated 2026).
Entries after “also recorded” stand apart in the source; their conditions may differ.

Columns and labels:
[1] = test system: IFNGR knockout Res 499 tumors; assay: In vivo cytokine rescue studies in CD8 T cell-depleted mice; parameters: species or system mouse; conditions: direct intratumoral injection
Method: In vivo cytokine rescue studies: All mice were pre-treated with anti-CD8 two days before tumor injection. Either 1 μg IFNg or 100 ng CXCL10 was mixed in the PBS/tumor cell suspension prior to injection of the tumor. Mice then continued receiving 500-1000 ng IFNG or 100 ng CXCL10 intra/peritumorally every 3 days post-tumor implantation. For flow cytometry experiments, mice were harvested at day 13 to examine the effects of cytokine addback on immune recruitment in the absence of CD8 T cells. For survival experiments, intra/peritumoral injections continued every 3 days for the remainder of the experiment.

JAK1 = JAK1 (Homo sapiens, UniProt P23458); conditions: read-out: half maximal inhibitory concentration [IC50]; cited from earlier work
[2] = total daily dose 1200 mg; cited from earlier work
[3] = test system: PD-L1 positive advanced NSCLC; conditions: cited from earlier work

Sequence of JAK1 (P23458 whole entry): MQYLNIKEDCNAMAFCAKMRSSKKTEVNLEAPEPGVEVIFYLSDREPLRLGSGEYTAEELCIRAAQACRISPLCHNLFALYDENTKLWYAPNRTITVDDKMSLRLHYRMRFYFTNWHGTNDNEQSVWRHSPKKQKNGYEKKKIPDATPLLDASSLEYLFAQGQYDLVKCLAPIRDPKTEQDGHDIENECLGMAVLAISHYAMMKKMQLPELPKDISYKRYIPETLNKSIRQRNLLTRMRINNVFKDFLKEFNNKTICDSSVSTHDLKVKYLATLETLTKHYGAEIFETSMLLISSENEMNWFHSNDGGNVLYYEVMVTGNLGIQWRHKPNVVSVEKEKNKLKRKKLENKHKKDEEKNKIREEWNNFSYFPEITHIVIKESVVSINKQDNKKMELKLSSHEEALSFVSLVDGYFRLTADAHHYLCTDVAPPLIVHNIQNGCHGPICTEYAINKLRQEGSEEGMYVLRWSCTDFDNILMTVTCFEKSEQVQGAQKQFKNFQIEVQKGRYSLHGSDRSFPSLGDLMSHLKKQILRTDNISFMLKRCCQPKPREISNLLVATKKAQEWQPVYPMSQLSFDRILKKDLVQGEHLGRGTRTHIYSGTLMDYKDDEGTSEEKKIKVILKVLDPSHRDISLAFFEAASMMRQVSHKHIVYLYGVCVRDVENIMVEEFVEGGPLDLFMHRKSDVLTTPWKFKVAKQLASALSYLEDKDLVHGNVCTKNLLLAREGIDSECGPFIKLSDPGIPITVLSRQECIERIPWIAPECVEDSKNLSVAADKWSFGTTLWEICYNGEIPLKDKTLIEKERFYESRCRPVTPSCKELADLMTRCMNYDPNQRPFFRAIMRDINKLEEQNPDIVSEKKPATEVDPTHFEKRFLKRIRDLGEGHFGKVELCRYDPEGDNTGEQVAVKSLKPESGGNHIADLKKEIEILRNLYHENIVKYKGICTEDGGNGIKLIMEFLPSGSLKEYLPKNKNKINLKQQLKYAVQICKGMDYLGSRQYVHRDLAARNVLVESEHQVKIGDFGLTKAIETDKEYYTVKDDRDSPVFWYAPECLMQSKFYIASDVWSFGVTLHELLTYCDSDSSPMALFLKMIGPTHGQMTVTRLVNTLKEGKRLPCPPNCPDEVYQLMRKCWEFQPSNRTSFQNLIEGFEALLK

With “CXCL10: IFNG-regulated CXCR3 ligand chemokine injected intra/peritumorally” the “rescue of the decrease in NK/ILC frequency after CD8 T cell depletion” value [1] was “partially rescue”.

For `N#CCC1(n2cc(-c3ncnc4[nH]ccc34)cn2)CN(C2CCN(C(=O)c3ccnc(C(F)(F)F)c3F)CC2)C1` [Itacitinib], the IC50 (JAK1) is listed as 3.6 nM and the “adverse events at highest total daily dose” value [2] is listed as “no adverse events”.

In the case of “Pembrolizumab: humanized monoclonal antibody of the IgG4/kappa isotype blocking the interaction between PD-1 and its ligands”, the “overall and progression free survival versus platinum doublet chemotherapy” value ([3]; PD-L1 expression greater than or equal to 50%) is given as “superior overall and progression free survival; also recorded: improve overall survival and progression free survival”, the response rate ([3]; first line NSCLC, tumors expressing high level of PD-L1 (>50%)) is given as 44.8% and the ORR ([3]; untreated PD-L1 positive advanced NSCLC) is given as 45%.
